Experiments:
UGT85C2 = target: T1, UGT85C2 (Stevia rebaudiana, UniProt Q6VAB0, A65S/E71Q/K220T); test: Assay for enzyme activity of UGT85C2 (glucosylation with UDP-glucose, LC-MS analysis); assay type: biochemical; conditions: 0.1 mM substrate, 2 mM UDP-glucose, pH 7.0, 30° C., one hour; FIG. 4 panel 1
T1 construct: The ORF fragment of about 1.4 kb from UGT85C2 was excised using the restriction enzyme sites of NdeI and BglII; made in house; host or cells: Escherichia coli BL21 (DE3)
Method: Standard conditions for the enzyme reaction were as follows. A reaction solution (2 mM UDP-glucose, 0.1 mM glycosyl acceptor substrate (steviol), 100 mM potassium phosphate buffer (pH 7.0) and 25 μl of purified UGT85C2 enzyme solution) was prepared in distilled water to become 50 μl, and reacted at 30° C. for an hour. The LC-MS analysis was performed for 5 μl of the enzyme reaction solution under the following conditions.
Column: Waters Sunfire C18 3.5 um 2.0 mm I.D.×20 mm
Moving phase: A: MilliQ Water (+0.05% formic acid), B: MeCN
Gradient: linear gradient of B from 15% to 55% (20 mins.)

[1] = system: UGT85C2 and UGT91D-like 3; test: Simultaneous reaction of UGT85C2 and UGT91D-like 3 (LC-MS analysis); assay type: biochemical, stevia; conditions: FIG. 4 panel 3
[2] = target: T2, UGT85C2 and UGT91D-like 3 (Stevia rebaudiana, UniProt Q6VAB0, A65S/E71Q/K220T); test: as above; assay type: biochemical; conditions: concluded from simultaneous reaction, FIG. 4 panel 3
T2 construct: The ORF fragment of about 1.4 kb from UGT85C2 was excised using the restriction enzyme sites of NdeI and BglII; made in house; host or cells: Escherichia coli BL21 (DE3), stated for UGT85C2 only
T2 sequence (Q6VAB0 whole entry A65S/E71Q/K220T, the tested form may be a part): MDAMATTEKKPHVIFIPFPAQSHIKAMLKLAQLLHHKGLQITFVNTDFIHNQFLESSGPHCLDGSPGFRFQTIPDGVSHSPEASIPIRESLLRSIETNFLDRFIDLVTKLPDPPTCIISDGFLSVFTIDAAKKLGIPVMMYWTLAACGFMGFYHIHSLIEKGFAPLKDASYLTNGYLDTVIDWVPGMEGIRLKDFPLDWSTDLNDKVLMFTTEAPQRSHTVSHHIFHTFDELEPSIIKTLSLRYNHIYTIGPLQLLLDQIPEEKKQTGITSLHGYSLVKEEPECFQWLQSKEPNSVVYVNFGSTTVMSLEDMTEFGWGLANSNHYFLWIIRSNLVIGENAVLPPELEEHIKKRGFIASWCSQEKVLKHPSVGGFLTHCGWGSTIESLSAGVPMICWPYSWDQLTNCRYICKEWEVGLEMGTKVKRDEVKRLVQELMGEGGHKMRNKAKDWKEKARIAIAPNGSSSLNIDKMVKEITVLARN

T1 sequence (Q6VAB0 whole entry A65S/E71Q/K220T, the tested form may be a part): as above

Compound | glucosylation of the carboxyl at C19-position by UGT85C2, product additionally formed (UGT85C2) | glucosylation of the hydroxyl at C-13 position by UGT85C2, product formed (UGT85C2) | products formed by simultaneous reaction of UGT85C2 and UGT91D-like 3 [1] | glucosylation of the carboxyl at C19-position by UGT85C2 protein [2]
C=C1C[C@@]23CC[C@H]4[C@@](C)(CCC[C@@]4(C)C(=O)O)[C@@H]2CC[C@]1(O)C3 [steviol] | rubusoside (FIG. 4: panel 1: peak D) with the carboxyl at C19-position being glucosylated was additionally formed | glucosylated (FIG. 4, panel 1: peak A) to form steviolmonoside | steviolbioside (FIG. 4: panel 3: peak C) and stevioside (FIG. 4: panel 3: peak E) were formed | –
C=C1C[C@@]23CC[C@H]4[C@@](C)(CCC[C@@]4(C)C(=O)O)[C@@H]2CC[C@]1(O[C@@H]1O[C@H](CO)[C@@H](O)[C@H](O)[C@H]1O[C@@H]1O[C@H](CO)[C@@H](O)[C@H](O)[C@H]1O)C3 [steviolbioside] | – | – | – | glucosylates the carboxyl at C19-position of steviolbioside
